Source: patent US12415802B1, “Dipyridine benzothiophene derivative compound” (KING FAISAL UNIVERSITY, priority 2025, dated 2025)

Assay: DPPH radical scavenging antioxidant test
Format: biochemical
Conditions: 517 nm; for Inhibition (radical scavenging inhibition): 0.2 mL DPPH (0.75 mM), compound (3p M) in ethanol, 30 minutes in the dark; for antioxidant activity (in words): DPPH in vitro test, vitamin C as positive control
From the text: A dipyridine benzo[b]thiophene derivative compound comprises 4-(1-benzothiophen-2-yl)-6-ethoxy-2,3′-bipyridine-5-carbonitrile. […] As described herein, the antioxidant activity of 4-(1-benzothiophen-2-yl)-6-ethoxy-2,3′-bipyridine-5-carbonitrile was investigated by 2,2-diphenyl-1-picrylhydrazyl (DPPH) in vitro tests that employ vitamin C as the positive control.
The antioxidant properties of the 4-(1-benzothiophen-2-yl)-6-ethoxy-2,3′-bipyridine-5-carbonitrile compound were studied by adding 0.2 mL DPPH (0.75 mM)) to 4-(1-benzothiophen-2-yl)-6-ethoxy-2,3′-bipyridine-5-carbonitrile (3p M) (4) in ethanol. After 30 minutes of incubation in the dark, the absorbance was read against a blank at 517 nm. Ascorbic acid (Vitamin C) was used as a standard antioxidant (positive control). A blank sample was prepared by 0.2 mL of DPPH in 3 mL ethanol. A negative control sample was run using ethanol instead of the sample. The radical scavenging inhibition was calculated using the following equation: […]
The antioxidant activity for the synthesized compound is listed in Table 1, using Vitamin C as a reference.

Compound	Inhibition (radical scavenging inhibition) [%]	antioxidant activity (in words)	antioxidant activity (in words) (listed as III)
CCOc1nc(-c2cccnc2)cc(-c2cc3ccccc3s2)c1C#N [Product 4, 4-(1-benzothiophen-2-yl)-6-ethoxy-2,3′-bipyridine-5-carbonitrile]	48	high antioxidant activities	high potential as an antioxidant compared to vitamin C
O=C1O[C@H]([C@@H](O)CO)C(O)=C1O [Vit C, Ascorbic acid, reference compound]	74	–	–
